Experimental data as given in patent US20120076899A1, “SHELF STABLE MONATIN SWEETENED BEVERAGE” (Cargill, Incorporated, priority 2009, published 2012).

Experiments:
[1] = Total indole concentrations over range of dissolved oxygen concentrations (light box storage); type: physicochemical; conditions: continuous light ~2200 lux, 28° C., pH 2.8-3.0
Description: (§1) Synthetic R,R-monatin containing approximately 95.4% R,R-monatin monopotassium salt (dry basis) was obtained from CSIR (Modderfontein, South Africa). About 100 mg/L of this monatin was placed in a buffered solution at a pH of about 2.8-3.0 comprising 9 mM citric acid-trisodium citrate in high purity water and preserved with about 150 mg/L sodium benzoate. Dissolved O2 levels were either increased by bubbling compressed air or reduced by bubbling N2 (99.9% purity) through these samples until the target O2 concentrations were achieved. Dissolved O2 levels were determined at 20° C. using a FOXY fluorescence quenching O2 analyzer from Ocean Optics (Dunedin, Fla.). Samples were stored in clear, glass ampules (˜10 mL) after O2 adjustment and heat-sealed to create an air-tight enclosure. The samples were then exposed to light continuously (24 hours per day) in a light box (˜2200 lux light intensity) configured with a rotating carousel to provide even illumination. The source of light was provided by ultra-violet (UV) light wavelength transmitting bulbs and standard fluorescent bulbs. The heat produced by the lights warmed the samples to a temperature of about 28° C. Duplicate samples of each treatment were analyzed weekly for total indole concentrations via the following method.
(§2) Total indole (monatin and its intramolecular rearrangement products, monatin lactone and monatin lactam) concentrations were quantified by reversed phase HPLC at 40° C. using an Agilent Zorbax Eclipse C18 column with UV detection at 280 nm by PDA. The compounds were eluted by a gradient mobile phase consisting of (A) 1:1 methanol and acetonitrile (v:v) with 0.3% formic acid and 10 mM ammonium formate and (B) 0.3% formic acid in water with 10 mM ammonium formate. The integrated peak areas for the three (3) compounds were expressed in terms of monatin concentration (mg/L) based on a standard curve prepared for monatin. Thus, the extinction coefficient for monatin was applied to estimate concentrations of monatin lactone and monatin lactam since standards for these compounds were unavailable.

[2] = Total indole concentrations under various light, O2 and EMIQ conditions; type: physicochemical
Description: as §1, with “35” for “100”, “benzoate. To some samples 200 ppm SANMELIN™ AO-3000 enzymatically modified isoquercitrin (EMIQ) (San-Ei Gen F.F.I.—Osaka, Japan) was added.” for “benzoate.”, “then either stored in the dark, or” for “then”
as §2

## NC(CC(O)(Cc1c[nH]c2ccccc12)C(=O)O)C(=O)O (centres unmarked) [R,R-monatin, 2-hydroxy-2-(indol-3-ylmethyl)-4-aminoglutaric acid]
[1]; 0.4 mg/L O2, 0 Days
  Total Indole Concentration: 104.0 mg/L
[1]; 0.4 mg/L O2, 7 Days
  Total Indole Concentration: 98.7 mg/L
[1]; 0.4 mg/L O2, 14 Days
  Total Indole Concentration: 102.9 mg/L
[1]; 0.4 mg/L O2, 21 Days
  Total Indole Concentration: 97.5 mg/L
[1]; 0.4 mg/L O2, 28 Days
  Total Indole Concentration: 96.2 mg/L
[1]; 1.5 mg/L O2, 0 Days
  Total Indole Concentration: 104.0 mg/L
[1]; 1.5 mg/L O2, 7 Days
  Total Indole Concentration: 97.1 mg/L
[1]; 1.5 mg/L O2, 14 Days
  Total Indole Concentration: 90.6 mg/L
[1]; 1.5 mg/L O2, 21 Days
  Total Indole Concentration: 93.3 mg/L
[1]; 1.5 mg/L O2, 28 Days
  Total Indole Concentration: 76.0 mg/L
[1]; 4.0 mg/L O2, 0 Days
  Total Indole Concentration: 104.0 mg/L
[1]; 4.0 mg/L O2, 7 Days
  Total Indole Concentration: 94.6 mg/L
[1]; 4.0 mg/L O2, 14 Days
  Total Indole Concentration: 71.3 mg/L
[1]; 4.0 mg/L O2, 21 Days
  Total Indole Concentration: 58.0 mg/L
[1]; 4.0 mg/L O2, 28 Days
  Total Indole Concentration: 14.6 mg/L
[1]; 6.5 mg/L O2, 0 Days
  Total Indole Concentration: 104.0 mg/L
[1]; 6.5 mg/L O2, 7 Days
  Total Indole Concentration: 97.0 mg/L
[1]; 6.5 mg/L O2, 14 Days
  Total Indole Concentration: 75.7 mg/L
[1]; 6.5 mg/L O2, 21 Days
  Total Indole Concentration: 54.7 mg/L
[1]; 6.5 mg/L O2, 28 Days
  Total Indole Concentration: 0.0 mg/L
[1]; 8.3 mg/L O2, 0 Days
  Total Indole Concentration: 104.0 mg/L
[1]; 8.3 mg/L O2, 7 Days
  Total Indole Concentration: 89.6 mg/L
[1]; 8.3 mg/L O2, 14 Days
  Total Indole Concentration: 49.9 mg/L
[1]; 8.3 mg/L O2, 21 Days
  Total Indole Concentration: 21.3 mg/L
[1]; 8.3 mg/L O2, 28 Days
  Total Indole Concentration: 0.0 mg/L
[2]; Light Exposure NO, O2 8.3 mg/L, EMIQ 0 ppm, 0 Days
  Total Indole Concentration: 36.3 mg/L
[2]; Light Exposure NO, O2 8.3 mg/L, EMIQ 0 ppm, 7 Days
  Total Indole Concentration: 36.5 mg/L
[2]; Light Exposure NO, O2 8.3 mg/L, EMIQ 0 ppm, 14 Days
  Total Indole Concentration: 37.0 mg/L
[2]; Light Exposure NO, O2 8.3 mg/L, EMIQ 0 ppm, 21 Days
  Total Indole Concentration: 41.0 mg/L
[2]; Light Exposure NO, O2 8.3 mg/L, EMIQ 0 ppm, 28 Days
  Total Indole Concentration: 37.5 mg/L
[2]; Light Exposure NO, O2 8.3 mg/L, EMIQ 200 ppm, 0 Days
  Total Indole Concentration: 35.5 mg/L
[2]; Light Exposure NO, O2 8.3 mg/L, EMIQ 200 ppm, 7 Days
  Total Indole Concentration: 35.3 mg/L
[2]; Light Exposure NO, O2 8.3 mg/L, EMIQ 200 ppm, 14 Days
  Total Indole Concentration: 43.3 mg/L
[2]; Light Exposure NO, O2 8.3 mg/L, EMIQ 200 ppm, 21 Days
  Total Indole Concentration: 36.2 mg/L
[2]; Light Exposure NO, O2 8.3 mg/L, EMIQ 200 ppm, 28 Days
  Total Indole Concentration: 33.5 mg/L
[2]; Light Exposure NO, O2 <0.5 mg/L, EMIQ 0 ppm, 0 Days
  Total Indole Concentration: 34.7 mg/L
[2]; Light Exposure NO, O2 <0.5 mg/L, EMIQ 0 ppm, 7 Days
  Total Indole Concentration: 32.8 mg/L
[2]; Light Exposure NO, O2 <0.5 mg/L, EMIQ 0 ppm, 14 Days
  Total Indole Concentration: 34.4 mg/L
[2]; Light Exposure NO, O2 <0.5 mg/L, EMIQ 0 ppm, 21 Days
  Total Indole Concentration: 32.8 mg/L
[2]; Light Exposure NO, O2 <0.5 mg/L, EMIQ 0 ppm, 28 Days
  Total Indole Concentration: 35.2 mg/L
[2]; Light Exposure NO, O2 <0.5 mg/L, EMIQ 200 ppm, 0 Days
  Total Indole Concentration: 34.7 mg/L
[2]; Light Exposure NO, O2 <0.5 mg/L, EMIQ 200 ppm, 7 Days
  Total Indole Concentration: 32.8 mg/L
[2]; Light Exposure NO, O2 <0.5 mg/L, EMIQ 200 ppm, 14 Days
  Total Indole Concentration: 34.4 mg/L
[2]; Light Exposure NO, O2 <0.5 mg/L, EMIQ 200 ppm, 21 Days
  Total Indole Concentration: 32.8 mg/L
[2]; Light Exposure NO, O2 <0.5 mg/L, EMIQ 200 ppm, 28 Days
  Total Indole Concentration: 35.2 mg/L
[2]; Light Exposure YES, O2 8.3 mg/L, EMIQ 0 ppm, 0 Days
  Total Indole Concentration: 36.3 mg/L
[2]; Light Exposure YES, O2 8.3 mg/L, EMIQ 0 ppm, 7 Days
  Total Indole Concentration: 15.3 mg/L
[2]; Light Exposure YES, O2 8.3 mg/L, EMIQ 0 ppm, 14 Days
  Total Indole Concentration: 4.5 mg/L
[2]; Light Exposure YES, O2 8.3 mg/L, EMIQ 0 ppm, 21 Days
  Total Indole Concentration: 0.0 mg/L
[2]; Light Exposure YES, O2 8.3 mg/L, EMIQ 0 ppm, 28 Days
  Total Indole Concentration: 0.0 mg/L
[2]; Light Exposure YES, O2 8.3 mg/L, EMIQ 200 ppm, 0 Days
  Total Indole Concentration: 34.7 mg/L
[2]; Light Exposure YES, O2 8.3 mg/L, EMIQ 200 ppm, 7 Days
  Total Indole Concentration: 32.7 mg/L
[2]; Light Exposure YES, O2 8.3 mg/L, EMIQ 200 ppm, 14 Days
  Total Indole Concentration: 28.4 mg/L
[2]; Light Exposure YES, O2 8.3 mg/L, EMIQ 200 ppm, 21 Days
  Total Indole Concentration: 26.0 mg/L
[2]; Light Exposure YES, O2 8.3 mg/L, EMIQ 200 ppm, 28 Days
  Total Indole Concentration: 22.5 mg/L
[2]; Light Exposure YES, O2 <0.5 mg/L, EMIQ 0 ppm, 0 Days
  Total Indole Concentration: 36.3 mg/L
[2]; Light Exposure YES, O2 <0.5 mg/L, EMIQ 0 ppm, 7 Days
  Total Indole Concentration: 35.9 mg/L
[2]; Light Exposure YES, O2 <0.5 mg/L, EMIQ 0 ppm, 14 Days
  Total Indole Concentration: 36.0 mg/L
[2]; Light Exposure YES, O2 <0.5 mg/L, EMIQ 0 ppm, 21 Days
  Total Indole Concentration: 38.8 mg/L
[2]; Light Exposure YES, O2 <0.5 mg/L, EMIQ 0 ppm, 28 Days
  Total Indole Concentration: 34.6 mg/L
[2]; Light Exposure YES, O2 <0.5 mg/L, EMIQ 200 ppm, 0 Days
  Total Indole Concentration: 34.7 mg/L
[2]; Light Exposure YES, O2 <0.5 mg/L, EMIQ 200 ppm, 7 Days
  Total Indole Concentration: 35.8 mg/L
[2]; Light Exposure YES, O2 <0.5 mg/L, EMIQ 200 ppm, 14 Days
  Total Indole Concentration: 33.9 mg/L
[2]; Light Exposure YES, O2 <0.5 mg/L, EMIQ 200 ppm, 21 Days
  Total Indole Concentration: 35.1 mg/L
[2]; Light Exposure YES, O2 <0.5 mg/L, EMIQ 200 ppm, 28 Days
  Total Indole Concentration: 29.3 mg/L
